{"source": "patent US20110230659A1", "about": "“CYCLOBUTYL PURINE DERIVATIVE, ANGIOGENESIS PROMOTING AGENT, LUMEN FORMATION PROMOTING AGENT, NEUROCYTE GROWTH PROMOTING AGENT, AND DRUG” (NATIONAL UNIVERSITY CORPORATION KAGAWA UNIVERSITY, priority 2008, published 2011)", "key": {"[1]": {"system": "rat adrenal medulla-derived cell line PC12", "assay": "Differentiation of PC12 cells, morphological change (micrographs)", "format": "cell-based", "conditions": "2-Cl—C.OXT-A at 50 μmol/l and 100 μmol/l; sixth day of culture", "description": "In the present example, using rat adrenal medulla-derived cell line PC12, which is neurocyte model cells, obtained from the RIKEN BioResource Center, the effect of 2-Cl—C.OXT-A of Example 1 on the differentiation of PC12 cells was examined.\nThree samples were prepared by adding additives shown in Table 5 below to PBS so as to achieve predetermined concentrations. Also, an evaluation medium was prepared by adding each sample or PBS to DMEM (no serum) so that its concentration became 10 v/v %. Furthermore, as a control medium, a medium containing only DMEM (no serum) was prepared. […] On the sixth day of the culture, the cells were photographed under a microscope, and the AChE activity was measured according to the Ellman's method (Ellman, G. L., et al., Biochem. Pharmacol., 7, pp. 88-95, (1961)). Specifically, the AChE activity was measured in the following manner. […] The sample solution, 75 μl of 10 mmol/l DTNB, and 3.0 ml of 0.1 mol/l phosphate buffer solution (pH 8.0) were added to a […] for absorbance measurement, and finally, 50 μl of 100 mmol/l acetylthiocholine was added to cause a reaction. The absorbance of the reaction solution at 412 nm was measured for 5 minutes from immediately after the addition of the ace tylthiocholine. From the thus-measured absorbances, the amount of increase in absorbance (C) per minute was determined. […]"}, "MEK": {"system": "MEK", "assay": "MEK phosphorylation immunoblot in HUVEC", "format": "cell-based, human", "conditions": "100 μmol/l; 15 minutes after the addition", "description": "First, to a HuMedia-EB2 medium (Kurabo) to which 2 v/v % inactivated fetal bovine serum (FBS) had been added, 2-Cl—C.OXT-A was added so that its concentration became 100 μmol/l. Thus, a medium was prepared. Using the medium, human umbilical vein endothelial cells (HUVEC) were cultured for predetermined periods (0, 10, 20, 30, 45, and 60 minutes).\nAfter the culture, cells were collected. The collected cells were lysed by adding a cell lysis buffer (SDS-lysis buffer) thereto, and heat-denatured at 95° C. for 5 minutes. […]\nThe enzymes were visualized with SuperSignal (registered trademark) West Pico Chemiluminescent Substrate (Pierce), and detected by being exposed to RX—U X-ray film (FUJIFILM Corporation). From the detected bands, the respective phosphoenzymes and total enzymes were quantified using an NIH image software. Furthermore, the relative value (−fold) of each phosphoenzyme was calculated by substituting the measured value of the phosphoenzyme into the following equation (III). […]\nIn the present example, the effect of 2-Cl—C.OXT-A used in Example 1 on the phosphorylation of MEK was examined. MEK is a protein kinase involved in the angiogenesis signal transduction pathway and located upstream of ERK measured in Example 3, and acts to promote angiogenesis. […]"}}, "data": [{"smiles": "Nc1nc(Cl)nc2c1ncn2C1CC(CO)C1CO", "note": "(stereo not drawn) [2-Cl—C.OXT-A, 6-amino-2-chloro-9-[trans-trans-2,3-bis(hydroxymethyl)cyclobutyl]purine]", "values": [{"measurement": "morphological change of PC12 cells (axon extension)", "setting": "[1]", "result": "cells from which linear axons extend were observed"}, {"measurement": "relative value (−fold) of pMEK", "setting": "MEK", "result": "about 3.5 fold"}]}]}
